Test results: DBAASP
Values after ≈ are worked out from the molar mass of the structure shown. One block for each compound: values may come before it.

Tests used:
Assay in all cases: ≥ marks a high value that may be exact or a test limit, other limits are often not marked, values filed in µg/mL are converted to µM
[1] = test system: Enterococcus faecalis
[2] = test system: Escherichia coli W3110
[3] = test system: Pseudomonas aeruginosa PAK
[4] = test system: Staphylococcus aureus
[5] = test system: Streptococcus gordonii Challis DL1
[6] = test system: Streptococcus mitis ATCC 903
[7] = test system: Streptococcus mutans UA159
[8] = test system: Streptococcus sanguinis NY101
[9] = test system: Streptococcus sobrinus ATCC 33478
[10] = test system: Aureobasidium pullulans
[11] = test system: Bacillus megaterium
[12] = test system: Bacillus subtilis ATCC 23857
[13] = test system: Candida albicans ATCC 10231
[14] = test system: Corynebacterium glutamicum ATCC 13032
[15] = test system: Escherichia coli ATCC 25922
[16] = test system: Micrococcus luteus
[17] = test system: Pseudomonas aeruginosa ATCC 27853
[18] = test system: Staphylococcus aureus ATCC 9144
[19] = test system: Bacillus subtilis IFO 3336
[20] = test system: Escherichia coli IFO 3301
[21] = test system: Pseudomonas aeruginosa MR3007
[22] = test system: Staphylococcus aureus 930918-3
[23] = test system: Staphylococcus aureus ATCC 33591
[24] = test system: Escherichia coli PCM 2057
[25] = test system: Bacillus licheniformis X39
[26] = test system: Psychrobacter faecalis X29
[27] = test system: Rhodococcus rhodochrous X15
[28] = test system: Staphylococcus aureus ATCC 2592
[29] = test system: Aeromonas salmonicida NCIMB 1102
[30] = test system: Bacillus subtilis IAM 1026
[31] = test system: Escherichia coli JCM 1649
[32] = test system: Photobacterium damselae subsp. piscicida Sp 9587
[33] = test system: Salmonella typhimurium
[34] = test system: Shewanella putrefaciens IAM 1509
[35] = test system: Staphylococcus aureus IAM 1011
[36] = test system: Vibrio anguillarum NCIMB 829
[37] = test system: Vibrio parahaemolyticus Vp+1

SMILES: C[C@H](NC(=O)[C@H](CCCCN)NC(=O)[C@H](Cc1c[nH]c2ccccc12)NC(=O)CNC(=O)[C@H](Cc1c[nH]c2ccccc12)NC(=O)[C@@H]1CCCN1C(=O)[C@H](CCCCN)NC(=O)[C@H](CCCCN)NC(=O)CN)C(=O)N[C@@H](CCCCN)C(N)=O [GKKPWGWKAK]
MIC [10]: ≥ 52.7 µM
MIC [11]: 3.29 µM (≈ 3.9 µg/mL)
MIC [12]: ≥ 211 µM
MIC [13]: 105 µM (≈ 125 µg/mL)
MIC [14]: 13.2 µM (≈ 15.6 µg/mL)
MIC [15]: > 211 µM
MIC [16]: ≥ 211 µM
MIC [17]: > 211 µM
MIC [18]: ≥ 211 µM

SMILES: NCCCC[C@H](NC(=O)[C@H](Cc1cnc[nH]1)NC(=O)[C@H](CCCCN)NC(=O)[C@H](Cc1cnc[nH]1)NC(=O)[C@H](CCCCN)NC(=O)[C@H](Cc1cnc[nH]1)NC(=O)[C@H](CCCCN)NC(=O)[C@H](Cc1cnc[nH]1)NC(=O)[C@@H](N)CCCCN)C(=O)N[C@@H](Cc1cnc[nH]1)C(=O)O [KHKHKHKHKH]
MIC [19]: 7.44 µM (≈ 10 µg/mL)
MIC [20]: 7.44 µM (≈ 10 µg/mL)

SMILES: CC[C@H](C)[C@H](NC(=O)[C@H](CC(N)=O)NC(=O)[C@H](C)NC(=O)[C@H](C)N)C(=O)N1CCC[C@H]1C(=O)N[C@@H](Cc1ccccc1)C(=O)N[C@@H](CCCCN)C(=O)N[C@H](C(=O)N[C@@H](Cc1cnc[nH]1)C(=O)N[C@@H](Cc1ccccc1)C(=O)N[C@@H](CCCN=C(N)N)C(=O)N[C@H]1CSSC[C@@H](C(=O)O)NC(=O)[C@H](Cc2ccccc2)NC(=O)[C@H](C)NC(=O)[C@H](C)NC(=O)[C@H](CCCCN)NC1=O)C(C)C [AANIPFKVHFRCKAAFC]
MIC [24]: ≥ 520 µM

SMILES: CC[C@H](C)[C@@H]1NC(=O)[C@H](CCCCN)NC(=O)[C@@H](NC(=O)[C@@H](NC(=O)[C@@H](NC(=O)[C@H](CCC(N)=O)NC(=O)[C@@H]2CCCN2C(=O)[C@H](CC(C)C)NC(=O)[C@H](Cc2ccccc2)NC(=O)[C@H](CC(N)=O)NC(=O)[C@H](C)NC(=O)[C@@H](NC(=O)[C@@H](NC(=O)CNC(=O)[C@H](C)NC(=O)[C@H](CC(C)C)NC(=O)[C@H](CC(C)C)NC(=O)[C@@H]2CCCN2C(=O)[C@H](CC(C)C)NC(=O)[C@@H](N)Cc2ccccc2)C(C)C)C(C)C)[C@@H](C)CC)[C@@H](C)CC)CSSC[C@@H](C(=O)O)NC(=O)[C@H](CCCCN)NC(=O)[C@H](CCCN=C(N)N)NC(=O)[C@H](C)NC1=O [FLPLLAGVVANFLPQIICKIARKC]
MIC [25]: 9.51 µM (≈ 25 µg/mL)
MIC [26]: 4.76 µM (≈ 12.5 µg/mL)
MIC [27]: 1.18 µM (≈ 3.1 µg/mL)
MIC [28]: 2.4 µM (≈ 6.3 µg/mL)

Further lines, with some results ahead:

MIC [1]: ≥ 438 µM
MIC [2]: ≥ 438 µM
MIC [3]: ≥ 438 µM
MIC [4]: > 438 µM
MIC [5]: ≥ 438 µM
MIC [6]: ≥ 438 µM
MIC [7]: ≥ 109 µM
MIC [8]: ≥ 438 µM
MIC [9]: ≥ 438 µM
SMILES: CC[C@H](C)[C@H](NC(=O)[C@H](Cc1cnc[nH]1)NC(=O)[C@H](CCCCN)NC(=O)[C@@H](NC(=O)[C@@H](N)CC(C)C)[C@@H](C)CC)C(=O)N[C@@H](CC(C)C)C(=O)N[C@@H](Cc1cnc[nH]1)C(=O)N[C@@H](CCCN=C(N)N)C(=O)N[C@@H](CC(C)C)C(N)=O [LIKHILHRL]

MIC [1]: ≥ 87.5 µM
MIC [2]: ≥ 87.5 µM
MIC [3]: ≥ 87.5 µM
MIC [4]: > 87.5 µM
MIC [5]: ≥ 87.5 µM
MIC [6]: ≥ 87.5 µM
MIC [7]: ≥ 87.5 µM
MIC [8]: ≥ 87.5 µM
MIC [9]: ≥ 87.5 µM
SMILES: C[C@@H](O)[C@H](NC(=O)[C@H](Cc1c[nH]c2ccccc12)NC(=O)[C@H](Cc1c[nH]c2ccccc12)NC(=O)[C@H](Cc1ccc(O)cc1)NC(=O)[C@H](CO)NC(=O)[C@H](Cc1c[nH]c2ccccc12)NC(=O)[C@@H](N)Cc1c[nH]c2ccccc12)C(=O)N[C@@H](CCC(N)=O)C(=O)N[C@@H](Cc1c[nH]c2ccccc12)C(N)=O [WWSYWWTQW]

MIC [21]: ≥ 160 µM
MIC [22]: ≥ 160 µM
MIC [23]: ≥ 160 µM
SMILES: CC[C@H](C)[C@H](NC(=O)[C@H](CCCCN)NC(=O)[C@H](CCC(N)=O)NC(=O)CNC(=O)[C@@H](NC(=O)[C@H](CCCCN)NC(=O)[C@H](CCCCN)NC(=O)[C@H](CC(C)C)NC(=O)[C@H](CCCCN)NC(=O)[C@H](CCC(=O)O)NC(=O)[C@H](CCCCN)NC(=O)[C@@H](NC(=O)[C@@H](N)CCCCN)[C@@H](C)CC)[C@@H](C)CC)C(=O)O [KIKEKLKKIGQKI]

MIC [19]: ≥ 92.2 µM
MIC [20]: ≥ 92.2 µM
SMILES: NC(N)=NCCC[C@H](NC(=O)CNC(=O)[C@H](CCCN=C(N)N)NC(=O)CNC(=O)[C@H](CCCN=C(N)N)NC(=O)CNC(=O)[C@H](CCCN=C(N)N)NC(=O)CNC(=O)[C@@H](N)CCCN=C(N)N)C(=O)NCC(=O)O [RGRGRGRGRG]

MIC [29]: 19.5 µM (≈ 50 µg/mL)
MIC [30]: 4.87 µM (≈ 12.5 µg/mL)
MIC [31]: 19.5 µM (≈ 50 µg/mL)
MIC [32]: 2.43 µM (≈ 6.25 µg/mL)
MIC [33]: 19.5 µM (≈ 50 µg/mL)
MIC [34]: 2.43 µM (≈ 6.25 µg/mL)
MIC [35]: 2.43 µM (≈ 6.25 µg/mL)
MIC [36]: 9.73 µM (≈ 25 µg/mL)
SMILES: CC[C@H](C)[C@H](NC(=O)[C@H](C)NC(=O)CNC(=O)[C@@H](NC(=O)[C@@H](NC(=O)[C@H](CCC(N)=O)NC(=O)[C@@H]1CCCN1C(=O)[C@@H](NC(=O)[C@H](C)NC(=O)CNC(=O)[C@@H](NC(=O)[C@@H](NC(=O)[C@H](Cc1cnc[nH]1)NC(=O)[C@@H]1CCCN1C(=O)[C@H](CC(C)C)NC(=O)[C@H](CC(C)C)NC(=O)[C@@H]1CCCN1C(=O)[C@@H](NC(=O)[C@H](CC(C)C)NC(=O)[C@H](Cc1ccccc1)NC(=O)CNC(=O)[C@H](Cc1ccccc1)NC(=O)[C@@H](N)CC(C)C)[C@@H](C)CC)[C@@H](C)CC)[C@@H](C)CC)[C@@H](C)CC)C(C)C)[C@@H](C)CC)C(=O)N[C@@H](CCCN=C(N)N)C(=O)O [LFGFLIPLLPHIIGAIPQVIGAIR]
MIC [37]: 9.73 µM (≈ 25 µg/mL)
